Data set [1] deals with Methicillin-resistant S. aureus (MRSA, ATCC 33591). Description: microbe, parasite or virus in culture. Conditions: for MIC: Staphylococcus aureus, read-out: MRSA (MIC). The format is cell-based, Staphylococcus aureus. On the procedure: Therefore, increasing the solubility of high generation of nested hexagons may enable more efficient studies in biological media and translate to effective antimicrobial activity. […] In addition, the smaller size of G1 was expected to lead to weaker interaction with bacterial membranes.
(§1) Minimum inhibitory concentrations (MICs) against MRSA.4 The antimicrobial activity of the compounds are tested against Methicillin-resistant S. aureus (MRSA, ATCC 33591). Briefly, a single colony of MRSA bacterium was inoculated in 3 mL TSB medium and allowed to grow overnight at 37 °C. The bacteria culture was then diluted at 1:100 and the bacteria were able to re-grow to mid-logarithmic phase in 6-8 h. Next, 50 µL compounds in 2-fold serially diluted solution with the concentrations of 0.1-25 µg/mL were added the 96-well plate containing 50 µL of bacteria suspension (1 × 10^6 CFU/mL) in each well. Following that, the plate was incubated at 37 °C for 16 h, and the absorption of those wells at 600 nm wavelength was read on a Biotek Synergy H1 microtiter […]
growth of MRSA in 24 h. […]

In a further data set the test system is E. coli. Description: MIC against Gram-negative bacterium E. coli. The format is cell-based.
Data set [2] has as its system human red blood cells (hRBCs). As to the kind of experiment: Hemolytic assay. The settings on record: 37 °C, 1 h. The format is cell-based. On the procedure:
as §1
growth of MRSA in 24 h. The experiment were repeated at least three times with duplicates each […]
Hemolytic assay.4 The freshly drawn human red blood cells (hRBCs) were washed with 1× PBS buffer multiple times and centrifuged at 3500 rpm for 10 min, until the supernatant became clear. Next, the supernatant was removed, and the RBCs were diluted into 5% v/v suspension. The aliquots of suspension (50 µL) were then incubated with compounds at various concentrations in 2-fold serially diluted solution (50 µL) at 37 °C for 1 h. The mixture was centrifuged at 3500 rpm for 10 min and the supernatant was collected. Following that, 100 µL PBS was added to 30 µL of the supernatant, and the absorbance of the solution at 540 nm was read on a Biotek Synergy H1 plate reader. 2% Triton X-100 was used as the positive control and 1× PBS was used the negative control.
The hemolysis activity was calculated by the formula % hemolysis =
(Abssample-AbsPBS)/(AbsTriton-AbsPBS)×100%. The experiment was repeated at least three times with […]
Conductance measurement on the planar lipid bilayer. The lipids
1,2-dipalmitoyl-sn-glycero-3-phosphatidylglycerol (DPPG, Avanti Polar Lipids) and 1,2-dipalmitoyl-sn-glycero-3-phosphatidylethanolamine (DPPE, Avanti Polar Lipids) were mixed in chloroform (9:1 in molar ratio, 10 mg/mL, 20 µL). […]

Where [3] appears, read: Escherichia coli, read-out: E. coli (MIC).

Where two headings read alike, the source gives them in different places.

`CCCCCCCCCC(=O)N[C@@H](Cc1c[nH]c2ccccc12)C(=O)N[C@H](CC(N)=O)C(=O)N[C@@H](CC(=O)O)C(=O)N[C@@H]1C(=O)NCC(=O)N[C@@H](CCCN)C(=O)N[C@@H](CC(=O)O)C(=O)N[C@H](C)C(=O)N[C@@H](CC(=O)O)C(=O)NCC(=O)N[C@H](CO)C(=O)N[C@@H]([C@H](C)CC(=O)O)C(=O)N[C@@H](CC(=O)c2ccccc2N)C(=O)O[C@@H]1C` [Daptomycin, daptomycin, reference compound]: in data set [1] (ATCC 33591), the “MRSA (MIC)” value was 0.5 µg/mL.
For `CCCCCCOc1c(-c2ccc(N)cc2)c(OCCCCCC)c(-c2ccc(-c3cc(-c4ccccn4)nc(-c4ccccn4)c3)cc2)c(OCCCCCC)c1-c1ccc(-c2cc(-c3ccccn3)nc(-c3ccccn3)c2)cc1` [L1], the MIC is > 100 µg/mL in data set [1] (MRSA ATCC 33591, TSB medium, 37 °C) and > 100 µg/mL in the data set with E. coli (Escherichia coli; read-out: E. coli (MIC)). For the same compound, in data set [2], the “Hemolysis (H50)” value is >250.
On to `CCCCCCOc1c(-c2ccc(-c3cc(-c4ccccn4)nc(-c4ccccn4)c3)cc2)c(OCCCCCC)c(-c2ccc(-[n+]3c(-c4ccc(-c5ccc(-c6cc(-c7ccccn7)nc(-c7ccccn7)c6)cc5)cc4)cc(-c4ccc(C(C)(C)C)cc4)cc3-c3ccc(-c4ccc(-c5cc(-c6ccccn6)nc(-c6ccccn6)c5)cc4)cc3)cc2)c(OCCCCCC)c1-c1ccc(-c2cc(-c3ccccn3)nc(-c3ccccn3)c2)cc1` [L2], for which the MIC (in data set [1]; in the data set with E. coli (setting [3])) was > 100 µg/mL each time. The “Hemolysis (H50)” value in data set [2] is on record as >250.
On to `CCCCCCOc1c(-c2ccc(-c3cc(-c4ccccn4)nc(-c4ccccn4)c3)cc2)c(OCCCCCC)c(-c2ccc(-[n+]3c(-c4ccc(-c5ccc(-c6cc(-c7ccccn7)nc(-c7ccccn7)c6)cc5)cc4)cc(-c4ccc(-[n+]5c(-c6ccc(-c7ccc(-c8ccc(-c9cc(-c%10ccccn%10)nc(-c%10ccccn%10)c9)cc8)cc7)cc6)cc(-c6ccc(C(C)(C)C)cc6)cc5-c5ccc(-c6ccc(-c7ccc(-c8cc(-c9ccccn9)nc(-c9ccccn9)c8)cc7)cc6)cc5)cc4)cc3-c3ccc(-c4ccc(-c5cc(-c6ccccn6)nc(-c6ccccn6)c5)cc4)cc3)cc2)c(OCCCCCC)c1-c1ccc(-c2cc(-c3ccccn3)nc(-c3ccccn3)c2)cc1` [L3], for which the MIC (in data set [1]; in the data set with E. coli (setting [3])) was > 100 µg/mL each time. In data set [2], the “Hemolysis (H50)” value is reported as >250.
